The test system of series [1] is lung fibrosis induced by bleomycin. Briefly: Mouse model of lung fibrosis (bleomycin). In kind it is in vivo. As to the method:
For lung fibrosis mouse model, C57BL/6 (B6) wild-type mice were lightly anesthetized with 2.5% isoflurane and administered bleomycin (BLM, 2 mg/kg) via oropharyngeal aspiration (OA) using a micropipette. After 14 days, the mice were intraperitoneally injected with MpepK (200 nmol/kg) every other day. The animal studies were approved by the Institutional Animal Care and Use Committee of Kyung Hee University (KHUASP(SE)-20-530 for melanoma and 20-382 for prostate cancer). All animals were maintained in a specific pathogen-free environment on a 12-h light/dark cycle with free access to food and water. Nesting sheets were used for enrichment. After the experiments were terminated, all mice were euthanized using isoflurane and cervical dislocation.
(§1) Total RNA was extracted using Easy-Blue reagent. Concentrations of RNA were determined and quantified by measuring absorbance at 260 and 280 nm with a spectrophotometer. […] PCR conditions were forty-five cycles at 95° C. for 5 min, followed by 95° C. for 10 sec, 60° C. for 10 sec and 72° C. for 10 sec. mRNA expression were quantified in triplicate. Data were measured with CFX Software (Bio-Rad). […]
The lung tissues of lung fibrosis mouse model were fixed in 10% neutral buffered formalin and embedded in paraffin. […] The sections were examined and evaluated randomly using standard light microscopy (Olympus).

In series [2] the test system is murine melanoma cells (B16F10 cell line). Put plainly: Mouse model of melanoma (subcutaneous B16F10). The conditions noted are these: vs PBS group. The format is in vivo. The source says: BALB/c and C57BL/6 (B6) wild-type mice were purchased from DBL. For the subcutaneous tumor model of melanoma and prostate cancer, CT26 (3×10^5 cells/mouse), B16F10 (1×10^6 cells/mouse) and TRAMP-C2 cells (1×10^6 cells/mouse) were mixed with Matrigel matrix (Corning) and inoculated subcutaneously into the right flank of the mice, and 4T1 (1×10^5 cells/mouse) cells mixed with Matrigel matrix and inoculated into a 4th mammary fat pad of the mice. TAMpepK, and MpepK peptides (200 nmol/kg) were injected intraperitoneally every 3 days, beginning at day 7 after tumor inoculation, and tumor volume was measured by electronic caliper. All tumor tissues were harvested after the end of the study and tumor weight was measured by an electronic balance.

In series [3] the test system is Hepa1-6 cells. Put plainly: Mouse model of hepatocellular carcinoma (subcutaneous Hepa1-6). In kind it is in vivo. As to the method:
C57BL/6 (B6) wild-type mice purchased from DBL. For the subcutaneous tumor model of hepatocellular carcinoma, Hepa1-6 cells were mixed with Matrigel matrix (Corning) and inoculated subcutaneously into the right flank (4×10^5 cells/mouse) of the mice. MpepK peptide (100, 200 and 400 nmol/kg) were injected intraperitoneally every 3 days, beginning at day 12 after tumor inoculation and tumor volume was measured by electronic caliper. All animals were maintained in a specific pathogen-free environment on a 12-h light/dark cycle with free access to food and water. After the experiments were terminated, all mice were euthanized using isoflurane and cervical dislocation.

The subject of series [4] is macrophages treated with TCM. Briefly: Cell viability of macrophages differentiated by TCM. The format is cell-based, human. Conditions: 1 μM.
Series [5] concerns TGF-β1-induced A549 cells cocultured with IL-4 and IL-13 induced THP-1 macrophages. Briefly: In vitro lung fibrosis model, coculture. The format is cell-based, human. Conditions: 1.5 μM, cocultured with M2 polarization of THP-1. As to the method:
THP-1 cells were purchased from the American Type Culture Collection (ATCC) and cultured according to their specific indications, using an RPMI 1640 medium supplemented with non-heat-treated 10% fetal bovine serum (FBS; WelGENE), 2 mM L-glutamine, 0.05 mM β-mercaptoethanol, 10 mM HEPES, 4500 mg/L glucose, 100 U/ml penicillin and 100 μg/ml streptomycin (Gibco). Human alveolar cell, A549 cells, obtained from the American Type Culture Collection (ATCC), were cultured in RPMI 1640 medium containing 2.05 mM L-glutamine, 2 g/liter sodium bicarbonate and 2 g/liter glucose (WelGENE) together with 10% FBS (WelGENE), 100 U/ml penicillin and 100 μg/m1 streptomycin (Gibco). Cells were cultured at 37° C. in a 5% CO2 humidified incubator to reach 80% of confluence.
THP-1 cells are differentiated into macrophages by 24 h incubation with 100 nM phorbol 12-myristate 13-acetate (PMA, Sigma) followed by 24 h incubation in RPMI medium (Invtrogen). […]
as §1

The mark [6] stands for this setting: B16F10 in C57BL6J mice, 200 nmol/kg i.p. every 3 days.

Take `CC[C@H](C)[C@H](NC(=O)[C@H](CC(C)C)NC(=O)[C@H](C)NC(=O)[C@@H]1CCCN1C(=O)[C@H](CC(C)C)NC(=O)CNC(=O)[C@@H](NC(=O)[C@@H](NC(=O)[C@H](CC(C)C)NC(=O)[C@@H](NC(C)=O)C(C)C)[C@@H](C)O)[C@@H](C)O)C(=O)N[C@@H](CO)C(=O)N[C@@H](Cc1c[nH]c2ccccc12)C(=O)N[C@H](C(=O)N[C@@H](CCCCN)C(=O)N[C@@H](CCCNC(=N)N)C(=O)N[C@@H](CCCCN)C(=O)N[C@@H](CCCNC(=N)N)C(=O)N[C@@H](CCC(N)=O)C(=O)N[C@@H](CCC(N)=O)C(=O)NCC(=O)NCC(=O)NCC(=O)NCC(=O)N[C@@H](CO)C(=O)N[C@H](CCCCN)C(=O)N[C@H](CC(C)C)C(=O)N[C@H](C)C(=O)N[C@H](CCCCN)C(=O)N[C@H](CC(C)C)C(=O)N[C@H](C)C(=O)N[C@H](CCCCN)C(=O)N[C@H](CCCCN)C(=O)N[C@H](CC(C)C)C(=O)N[C@H](C)C(=O)N[C@H](CCCCN)C(=O)N[C@H](CC(C)C)C(=O)N[C@H](C)C(=O)N[C@H](CCCCN)C(=O)O)[C@@H](C)CC` [MpepK]: in series [1] (200 nmol/kg i.p. every other day, H&E), the “lung fibrosis induced by bleomycin” value is reported as “decreased”. Further, the “gene expression related to fibrosis such as fos12, collagen type 1 and fibronectin 1” value in series [1] (compared to PBS) is on record as “significantly reduced”. In addition, the tumor volume entry in series [2] (setting [6]) is recorded as “reduced”; in series [3] (Hepa1-6 model, all doses (100, 200 and 400 nmol/kg) i.p. every 3 days, vs PBS group), “significantly reduced”. In addition, the tumor weight result in series [2] (setting [6]) is given as “reduced”. Further, the survival rate entry in series [2] (B16F10 melanoma model) is reported as “extended”; in series [3] (Hepa1-6 model, 100, 200 and 400 nmol/kg, vs PBS group) it was “significantly extended”. Besides, the body weight change entry in series [3] (Hepa1-6 model, 100, 200 and 400 nmol/kg i.p. every 3 days) is listed as “no significant difference”. The “apoptosis in macrophages treated with TCM” value in series [4] is “induced apoptosis”. Moreover, the “inhibitory effect on EMT and FMT of epithelial cells” value in series [5] is listed as “no significant inhibitory effect”.

The values above are taken from patent US20220354957A1, “PEPTIDES TARGETING MACROPHAGES, AND CONJUGATES, COMPOSITIONS, AND USES THEREOF” (Twinpig Biolab, Inc., priority 2021, published 2022).
